Data on two compounds can be found in patent publication US11168052B2, “Carbamate derivative compounds, processes for preparing them and their uses” (BIO-PHARM SOLUTIONS CO., LTD., priority 2016, dated 2021).

Bounds are passed on as bounds.

The test system of experiment [1] is CFA-induced pain model in rats. The experiment is described as follows: Antiallodynic activity on Complete Freund's Adjuvant (CFA)-induced inflammatory pain model. Format: in vivo, Sprague-Dawley rats. To be noted: Rattus norvegicus, ip, 50 mg/kg intraperitoneally, von Frey threshold relative to sham, 0.5 hr after administration, read-out: Efficacy of 50 mg/kg(%). In a few lines:
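Male Sprague-Dawley rats given 100 ul CFA intraplantar in the right hind paw; one week later, ipsilateral mechanical allodynia (baseline threshold <4 g required) assessed with von Frey up-and-down method, 50% withdrawal threshold by Dixon formula. Compounds 50 mg/kg i.p. in 30% PEG or 20% Tween 80, tested 0.5 h post-dose; values as % of sham.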

For a further experiment, the system named is ICR mice on hot plate. The experiment is described as follows: Hot-plate test. Format: in vivo. To be noted: Mus musculus, po, orally, withdrawal latency. Here is the method:
To examine the pain relief effect of the carbamate compounds, a hot-plate test was conducted in referring to Current Protocols in Neuroscience; Behavioral Neuroscience Unit 8.9.
ICR mice (male, 25-28 g; Orient Bio, Korea) were habituated before test (in test room) for 1 hour. Animals were fasted 2 hr before administration of compounds. Compounds were orally administered at the three dose, 10 ul/g, by bodyweight (n=4-6/group). All compounds were dissolved in a vehicle of 30% (v/v) PEG 400 or 20% (v/v) Tween 80. The control group was treated the vehicle without compounds.
0.25-2.0 hr after the administration of compounds, the mice were put on a hot plate pre-heated to 55±1 (Hu, X. et al, 2008), and then, the withdrawal latency time was measured (cut-off time: 30 sec) until the point when each mouse was taking a paw off from the plate, shaking, licking a paw or hind leg, or jumping from the plate.

The test system of experiment [2] is MES (electroshock) seizure in mice. The experiment is described as follows: Anti-epilepsy activity, MES test in mouse. Format: in vivo, ICR mice. To be noted: po. In short, it runs like this: (§1)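 Male ICR mice (19–25 g) and male SD rats (100–130 g) dosed orally with compound in 20% Tween 80/saline, then shocked via corneal electrodes at peak time (mice 50 mA, rats 150 mA; 60 Hz, 0.2 sec). Three doses used; ED50 for seizure protection by Litchfield–Wilcoxon log-probit.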

Experiment [3] deals with MES (electroshock) seizure in rats. Kind of experiment: Anti-epilepsy activity, MES test in rats. Format: in vivo, SD rats. To be noted: Rattus norvegicus, po. In short, it runs like this:
as §1

In experiment [4] the test system is Picrotoxin (PIC)-induced clonic seizure in mice. The experiment is described as follows: Chemical induced seizure model (PIC). Format: in vivo, ICR mice. Here is the method: Picrotoxin (PIC) were used to induce the behavioral seizures in the experiments. Male ICR mice (purchased from Orient Bio Inc. Korea) of body weight 19-26 g (mice) were used for these studies. The test materials were administered intraperitoneal (ip) route in a volume of 10 ul/g (mice) weight in rats or mice, respectively. Pharmacological effects of the test materials were evaluated to compared test groups (n=6) with a control group (n=6). Control group was administrated vehicle, only. The peak time was determined by administration of test material's random dose for 0.5, 1, 2, 4 hour. The time that the most protect was defined as a peak time and ED50 was determined by other dose administration at the peak time. Chemical (PIC) was dissolved in 0.9% saline and administered subcutaneously (s.c.) at its CD97 (convulsive dose 97%), the dose of Chemical (PIC) that produced clonic seizures in 97% into a loose fold of skin in the midline of the neck in a volume of 10 ul/g (mice) body weight. The animals were then transferred to observation cages and observed continuously for 45 min. Clonic seizure was elicited in approximately 97% of control group. Protection was defined as a complete absence of clonic seizure over the 45-min observation period. The effective dose of compound necessary to protect against generalized convulsive seizures to 50% of controls (i.e., ED50) was determined by log probit analysis using SPSS software program (SPSS Inc.). (Reference; White H. S., J. H. Woodhead, K. S. Wilcox, J. P. Stables, H. J. Kupferberg, and H. H. Wolf. General Principles; Discovery and Preclinical Development of Antiepileptic Drugs. In: R. H. Levy, R. H. Mattson, B. S. Meldrum, and E. Perucca, eds. Antiepileptic Drugs, 5th Ed. Lippincott Williams & Wilkins, Philadelphia 2002: pp. 36-48.) The obtained results are shown in following Table 10.

On to `NC(=O)O[C@@H]1c2c(Cl)cccc2CC[C@@H]1O` [Example 19, (1R, 2S)-8-chloro-2-hydroxy-1,2,3,4-tetrahydronaphthalen-1-yl carbamate], for which the response vs control in vivo at 50 mg/kg in experiment [1] was determined as 51.6%. Moreover, the median effective dose (ED50) (usually the midpoint of the dose-response relation) was over 100 mg/kg with ICR mice on hot plate, 22.4 mg/kg in experiment [2] and 4.6 mg/kg in experiment [3]. The “PIC(ip) efficacy %” value in experiment [4] (mice, dose 120 mg/kg) is on record as 120 (16.6%).

Regarding `NC(=O)O[C@@H]1CCc2cccc(Cl)c2[C@@H]1O` [Example 1, (1S, 2R)-8-chloro-1-hydroxy-1,2,3,4-tetrahydronaphthalen-2-yl carbamate], the response vs control in vivo at 50 mg/kg in experiment [1] is 74.9%. Moreover, the ED50 in the experiment on ICR mice on hot plate came out at 101 mg/kg; in experiment [2], 12.1 mg/kg; in experiment [3], 5.9 mg/kg; in experiment [4] (Mus musculus, ip, read-out: PIC(ip) ED50), 23.7 mg/kg.
